Results: patent US20150126464A1, “THERAPEUTIC DRUG AND THERAPEUTIC METHOD FOR NEUROLOGICAL DISEASES INCLUDING ALZHEIMER'S DISEASE ASSOCIATED WITH 1,25D3-MARRS” (priority 2013, published 2015)

Experiments:
normal mice [1] = experiment: Object recognition memory under continuous administration of 1,25D3-MARRS neutralizing antibody; assay type: in vivo, mouse; conditions: normal ddY mice, diosgenin i.p.
Protocol: To neutralize the 1,25D3-MARRS function of normal mice (ddY mice, male, 6 weeks old), a polyclonal antibody specific to 1,25D3-MARRS, i.e., Ab099 clone, was intraventricularly administered in a continuous manner. Ab099 diluted in ACSF (artificial cerebrospinal fluid) was charged into a micro osmotic pump (model: 1007D, Alzet, Cupertino, Calif., USA) and a brain infusion kit 3 (Alzet). The dilution rate of Ab099 was determined depending on the cerebrospinal fluid (CSF) volume and the inflow velocity so that the concentration would be sufficient for Ab099 to act as a neutralizing antibody in CSF. Using stereotaxic apparatus, a brain infusion cannula (brain infusion kit) was inserted into the right ventricle of each mouse anesthetized beforehand (anterior/posterior: −0.22 mm posterior from bregma, medial/lateral: +1.0 mm, dorsal/ventral: −2.5 mm below surface). The entire cannula insertion site was covered with Loctite 454 (Alzet). The pump was subcutaneously implanted in the back of the mouse. The incision in the skin was sutured.
After the start of continuous antibody administration, the intraperitoneal administration of diosgenin was initiated. After 5-day administration of diosgenin, the object recognition memory training was initiated. The next day, the last administration of diosgenin was performed. The test session was initiated 48 hours after the start of the training session. […]

[2] = tested on: rat cortical neurons (SD E18); experiment: Axon density after Aβ (1-42)-induced axonal atrophy with 1,25D3-MARRS neutralizing antibody; assay type: cell-based; conditions: after Aβ (1-42) for 3 days; Ab099 clone 1:500; diosgenin 0.1 μM or 1 μM for 5 days
Protocol: Aβ (1-42) was incubated at 37° C. for four days for aggregation beforehand. […] After the 3-day treatment, a control antibody (normal rabbit IgG, 1:5000) was added to the cells, and the cells were incubated for 10 minutes and further treated with diosgenin (0.1 μM) for 5 days.
Seven to nine images were captured.

[3] = tested on: spinal cord injury (SCI) mice; experiment: Hindlimb motor function of spinal cord injury (SCI) mice (BMS, TMS); assay type: in vivo, mouse; conditions: diosgenin 10 μmol/kg i.p. once a day for 7 days, vs vehicle
Protocol: In the spinal cord injury model test, 7-week-old female ddY mice (SLC) were used. The mice were maintained with free access to food and water in a controlled environment (22±2° C., 50±5% humidity, 12-h light/dark cycle starting at 7:00 am). A contusion was created by dropping a 3.0 g weight once onto an exposed first lumbar vertebrae (L1) of each mouse from a height of 3 cm using stereotaxic apparatus (made by Narishige). One hour after surgery, the mice were randomly divided into a vehicle solution-treated group and a diosgenin-treated group, and then drug administration was initiated.
Diosgenin (10 μmol/kg) was intraperitoneally administered to SCI mice once a day for 7 days.
One hour after the last administration in Example 13 and Comparative Example 17, each mouse was moved to an open field (23.5 cm×16.5 cm×12.5 cm) and observed for behavior evaluation for 5 minutes. The locomotion behavior in the open field was evaluated using the Basso Mouse Scale (BMS), which is a general standard for evaluation of the hindlimb function of SCI model mice (FIG. 14A), and a 0-18-point Toyama Mouse Scale (TMS), which is a modified BMS devised by the inventors for better test accuracy, (FIG. 14B).
The new Toyama Mouse Scale (TMS), which is a modified BMS devised by the inventors for better test accuracy, was used in the hindlimb function of SCI mice.

normal mice [4] = experiment: Location recognition test in normal mice; assay type: in vivo, mouse; conditions: diosgenin i.p. 7 days, 48 hours training-test interval
Protocol: Diosgenin (Wako Pure Chemical Industries, Ltd., Osaka, Japan) was dissolved in ethanol at 10 times the final concentration to give a stock solution, and the stock solution was diluted in a 5% aqueous solution of glucose to the final concentration. The diosgenin solution was intraperitoneally administered to normal mice (ddY mice, male, 6 weeks old) once a day (10 μmol/kg/day) for 5 or 6 days. One hour after the last administration, each mouse was housed in a separate open-field box made of polyvinyl chloride (33 cm×28 cm; height: 26.5 cm), habituated to the environment for 10 minutes, and used in the test.
Intraperitoneal administration to the mice of Example 2 and Comparative Example 3 was performed for 7 days. One hour after the last administration, a location recognition test was performed to evaluate the spatial recognition memory. Testing was carried out in a dimly illuminated room (100 lux). The test was performed as described in Tohda, C. et al., Br J Pharmacol. 157, 1427-1440, 2009, written by the inventor and others, except that the time interval between a training session and a test session was 48 hours. As a locomotion index, the path of each mouse was tracked using a digital camera system. The distance each mouse traveled during the 10 minutes was analyzed as locomotion activity with EthoVision 3.0 (Noldus, Wageningen, The Netherlands).

[5] = tested on: rat cortical neurons (SD E18); experiment: Measurement of axon density in cortical neurons with or without 1,25D3-MARRS knockdown; conditions: 1 μM, 4 days, vs vehicle
Source text: siRNAs were transfected into rat cortical neurons (SD E18) according to the manufacturer's protocol for nucleofection (Lonza, Bazel, Switzerland). […] Two days after the transfection, the cells were fixed and double-immunostained with a monoclonal antibody against a neuron marker MAP2a/2b (1:500, NeoMarker, Fremont, Calif., USA) and Ab099 clone, a specific antibody for 1,25D3-MARRS (1:500, provided by Dr. Nemere).
Twelve to fourteen images were captured. The lengths of the pNF-H-positive axons were measured using an image analyzer Neurocyte (Kurabo), which automatically traces and measures neurite length without measuring the cell bodies. The sum of the axon lengths was divided by the number of MAP2-positive neurons.
1,25D3-MARRS was knocked down using siRNA transfection. […] Two days after the siRNA transfection, denosomin (1 μM) or a vehicle solution was applied to the cells. Further, after 4-day incubation, the cells were double-immunostained for pNF-H and MAP2 to measure the axonal length per neuron.

Q: How did the “preferential index, mice treated with ACSF and diosgenin” value (normal mice [1]; ACSF intraventricular, test 48 hours after training) turn out when C[C@@H]1CC[C@@]2(OC1)O[C@H]1C[C@H]3[C@@H]4CC=C5C[C@@H](O)CC[C@]5(C)[C@H]4CC[C@]3(C)[C@H]1[C@@H]2C [diosgenin] was run?
A: Its value is “significantly improved”.

Q: And the “memory improvement attributable to diosgenin in mice given 1,25D3-MARRS neutralizing antibody” value (normal mice [1]; Ab099 clone intraventricular continuous)?
A: The value was “completely offset”.

Q: What about the “diosgenin-induced axonal growth in cells where 1,25D3-MARRS was inhibited by the neutralizing antibody” value [2] of the same compound?
A: The value was “significantly suppressed”.

Q: And the “hindlimb motor function (BMS and TMS)” value [3]?
A: The value was “improved hindlimb motor function”.

Q: What about the “frequency of exploratory behavior for the object moved to a new location” value (normal mice [4]) of the same compound?
A: Its value is > 50%.

Q: And the “density of pNF-H-positive axons per MAP2-positive neuron, control groups” value ([5]; control (no 1,25D3-MARRS knockdown) cortical neurons)?
A: The value was “significantly increased”.

Q: And the “density of pNF-H-positive axons per MAP2-positive neuron, 1,25D3-MARRS knockdown groups” value ([5]; neurons transfected with siRNA for 1,25D3-MARRS (400 nM))?
A: The value was “did not show any difference”.
